# Experiments:
# gut microbiota [1] = assay: Gut microbiota composition in C3Tag GEMM animals; assay type: in vivo, C3Tag GEMM mice
# Source text: Finally, we examined the effects of irinotecan and GUS inhibitor on the composition of the gut microbiota in […] triple-negative breast cancer GEMM animals. […] While the vehicle and Inh9 treatment groups appeared similar by PCoA1 analysis, both the irinotecan and IRI+Inh9 groups were similar to each other and distinct from the non-irinotecan mice (FIG. 22C). However, unlike the xenograft mice, irinotecan induces much smaller changes in the composition of the gut microbiota in these GEMM animals. […] These changes were not as dramatic as those observed with the athymic Sum149 xenograft mice presented above. […] In these GEMM animals, though, no change in Enterobacteriaceae or other Gammaproteobacteria families was observed; thus, the taxa that drive the increases in Proteobacteria are not known in these immune-competent mice.
# SUM149 cells [2] = conditions: athymic nude, mouse, in vivo, 5 days
# C3-Tag mammary tumors [3] = assay: C3-Tag genetically engineered mouse model (GEMM) of triple-negative breast cancer
# [4] = therapeutically-relevant doses; cited from earlier work
# gut microbial enzymes = assay: SN-38-G reactivation in fimo samples after treatment of FVB mice; assay type: in vivo
# Method: The FVB mice were treated with irinotecan, the Inh9, or both irinotecan and Inh9, and it was determined how these treatments affected SN-38-G reactivation in fimo samples collected after 24 hours. […] A similar study was conducted in which samples were collected at 120 hours; at this five-day timepoint, no difference was found between the four treatment groups (data not shown).
# C3-Tag mammary tumors [5] = conditions: mouse, in vivo
# gut microbiota [6] = assay: 16S rRNA metataxonomic analysis of luminal contents, athymic Sum149 xenograft mice; assay type: in vivo
# Method: A metataxonomic analysis was performed of the luminal contents of athymic mice bearing Sum149 triple-negative breast cancer xenograft tumors by sequencing the V3-V4 region of the bacterial 16s rRNA gene. […] Gut microbial diversity is associated with animal and human health, while reduced diversity is associated with disease in both model organisms and humans (REFs). Thus, Inh9 blunts the negative effects of irinotecan on gut microbial diversity in athymic tumor xenograft mice, and is capable of increases species richness in these animals.
# At the phylum level, the lumenal contents of vehicle-treated mice contained 50% Bacteroidetes, 42% Firmicutes, and 4% Proteobacteria (FIG. 22B). […] Thus, in immune-deficient mice, Inh9 markedly protects gut microbial composition in athymic mice, increasing diversity and reducing irinotecan-induced increases in Proteobacteria.
# SUM149 cells [7] = assay: SUM149 triple negative breast cancer xenograft in athymic nude mice
# [8] = system: murine intestinal epithelium; assay: Time-course of gut damage after a single treatment in FVB mice; assay type: in vivo, female FVB mice
# Method: It has been previously reported that irinotecan induces apoptosis and reduces the number of mitotic structures in the rat intestinal epithelium (Takasuna 1996). To assess whether Inh9 impacts cell proliferation in the murine intestinal epithelium, we undertook two time-course studies. Four groups of age-, weight- and litter-matched female FVB mice were treated with a single treatment of vehicle, Inh9 (1 mg/kg p.o.), irinotecan (50 mg/kg i.p.) or irinotecan and Inh9. One set of animals were euthanized after 24 hours, and a second set after 120 hours. To assess overall effects on the animals, changes in body weight, spleen mass and hematocrit were measured. In the GI tract, levels of apoptotic cells and proliferative cells were measured and epithelial samples were examined by H&E staining.
# Thus, at five days, Inh9 appears to protect this measure of animal health. […] As such, the protection afforded at 24 hours by Inh9 is sufficient to improve subsequent gut epithelial outcomes in mice several days after administration.
# [9] = system: gut microbial GUS enzymes; conditions: irinotecan alone; cited from earlier work
structure (smiles),measurement,setting,value
"CCc1c2c(nc3ccc(OC(=O)N4CCC(N5CCCCC5)CC4)cc13)-c1cc3c(c(=O)n1C2)COC(=O)[C@]3(O)CC [irinotecan, (S)-4,11-diethyl-3,4,12,14-tetrahydro-4-hydroxy-3,14-dioxo1H-pyrano[3′,4′:6,7]-indolizino[1,2-b]quinolin-9-yl-[1,4′bipiperidine]-1′-carboxylate, reference compound]","Proteobacteria and Gammaproteobacteria, Verrucomicrobia and Verrocumicrobiae levels",gut microbiota [1]; irinotecan alone or in combination with GUS inhibitor vs no irinotecan,significant increases
same,composition of the gut microbiota,gut microbiota [1]; mice with intact immune system,sole driver of changes
same,"mice that developed late-onset, delayed diarrhea",SUM149 cells [2],50%
same,number of tumors observed in the animals,C3-Tag mammary tumors [3]; between treatment groups,did not differ
same,time until euthanasia was required for all animals,"C3-Tag mammary tumors [3]; irinotecan alone, after the initiation of therapy",28 days
same,primary tumor as share of body weight,C3-Tag mammary tumors [3]; single agent,3%
same,primary tumor mass upon sacrifice,C3-Tag mammary tumors [3]; single agent,~1 g
same,patients who develop diarrhea of all grades,[4],88%
same,patients with life-threatening grade 3-4 diarrhea,[4],30%
same,effects on SN-38-G reactivation by in fimo samples,gut microbial enzymes; samples collected at 120 hours,no longer detected
same,SN-38-G processing activity in the mouse cecum (in fimo samples),"gut microbial enzymes; single agent, samples collected after 24 hours",significantly increased
same,time within which all animals developed diarrhea,"C3-Tag mammary tumors [5]; female, C3-Tag (strain of origin FVB/N)",≤ 14 days
same,body weight over the course of the study,C3-Tag mammary tumors [5],consistently lost weight
same,"colon tissue, H&E staining",C3-Tag mammary tumors [5],almost completely destroyed glandular structure
same,increase in the levels of Proteobacteria,"gut microbiota [6]; irinotecan, athymic xenograft mice",ten-fold increase
same,"Bacteroidetes in lumenal contents, phylum level",gut microbiota [6]; single agent,35%
same,"Firmicutes in lumenal contents, phylum level",gut microbiota [6]; single agent,16%
same,"Proteobacteria in lumenal contents, phylum level",gut microbiota [6]; single agent,46%
same,"species diversity, Chao1 richness",gut microbiota [6]; single agent,significant drop
same,time to early-onset diarrhea,SUM149 cells [7]; both irinotecan treatment groups,≤ 12 h
same,time until the entire cohort required euthanasia,"SUM149 cells [7]; irinotecan alone, following the first treatment",10 days
same,post-sacrifice colon histological examination,SUM149 cells [7]; single agent,dramatic irinotecan-induced epithelial damage
same,terminal tumor masses,SUM149 cells [7]; single agent,significantly reduced
same,time to apoptotic crypt damage in the murine small intestine,[8]; irinotecan,≤ 24 h
same,spleen mass,"[8]; single IRI injection, five days",unchanged
same,body mass,"[8]; single IRI injection, over five days",modest body mass reduction
same,"proliferative (BrdU+) cells per crypt in ileum, proximal colon and distal colon","[8]; single agent compared to vehicle or Inh9, 120 hours",significantly decreased
same,time to lethal intestinal toxicity,[9],≤ 10 days
